From patent US7635561B2, “Methods of diagnosing, prognosing and treating breast cancer” (Temple University of the Commonwealth System of Higher …, priority 2003, dated 2009)

Assays:
Assay type in all cases: cell-based
[1] = system: pRb2/p130-multimolecular complex on ER-α promoter in MCF-7 cells; assay: XChIP analysis of recruitment of pRb2/p130-multimolecular complex to the ER-α promoter in 5-Aza-2dC treated MCF-7 cells; conditions: 72 hours treatment
Description: After removal of the medium, cells were washed three times on plates with cold phosphate-buffered saline (PBS) containing protease inhibitors (1 mM phenylmethyl-sulfonyl fluoride, 1 μg/ml aprotinin and 1 μg/ml pepstatin A), scraped, and washed again twice in cold PBS. The cell pellet was resuspended in SDS lysis buffer (1% SDS, 10 mM EDTA, 50 mM Tris-HCl, pH 8.1), incubated for 10 minutes on ice, sonicated to shear DNA to lengths between 300 and 500 bp, and centrifuged for 10 minutes at 13,000 rpm at 4° C. Sonicated cell supernatant was diluted in ChIP dilution buffer (0.01% SDS, 1.1% Triton X-100, 1.2 mM EDTA, 16.7 mM Tris-HCL, pH 8.1, 167 mM NaCL), and pre-cleared twice with salmon sperm DNA/protein A agarose at 4° C. for 2 hours. The agarose was pelleted and the supernatant fraction was collected and incubated overnight at 4° C. with the immunoprecipitating antibody.
As negative controls, a “no-antibody” immunoprecipitation was performed by incubating the supernatant fraction with salmon sperm DNA/protein A agarose, and immunoprecipitating the mixture with an irrelevant antibody. […]

ER-α in MDA-MB-231 cells = assay: Effect of 5-Aza-2dC on ER-α RNA (RT-PCR) and protein (Western blot) expression in MDA-MB-231 cells
Description: The expression of β-actin protein in each sample was assessed to normalize protein loading.
The breast carcinoma cell lines, MCF-7 (estrogen receptor-positive), MDA-MB-231 (estrogen receptor-negative) and the normal mammary epithelial cell line MCF-12A, were obtained from ATCC (Rockville, Md.) and were cultured according to the manufacturer's protocols. The breast primary tumors were selected on the basis of estrogen receptor status.
Control cells were left untreated. Total RNA was isolated from the treated and control cells, and ER-α RNA was detected by reverse-transcription polymerase chain reaction (RT-PCR). P-actin RNA expression was also determined by RT-PCR in total RNA isolated from treatment and control cells to normalize RNA loading. […] The expression of β-actin protein was assessed to normalize protein loading.

[2] = system: pRb2/p130-multimolecular complex on ER-α promoter in MDA-MB-231 cells; assay: XChIP analysis of recruitment of pRb2/p130-multimolecular complex to the ER-α promoter in 5-Aza-2dC treated MDA-MB-231 cells; conditions: 72 hours treatment, complex contained pRb2/p130, E2F4, SUV39H1, p300, HDAC1
Description: Soluble chromatin was immunoprecipitated with specific antibodies recognizing pRb2/p130, E2F4, HDAC1, SUV39H1, DNMT1, and p300. The presence of ER-α promoter sequences in the immunoprecipitates was tested by PCR using specific primers spanning ER-α promoter.
Chromatin immunoprecipitations were performed using a modified procedure of previously published methods (see Orlando et al., 1997, Methods and 11, 205; Keller et al., 2002, J. Biol. Chem., 277, 31430, the entire disclosures of which are herein incorporated by reference), in combination with Western blot and PCR techniques. Approximately 1×10^6 MCF-7 and MDA-MB-231 cells were cross-linked by adding formaldehyde (1% final concentration) directly to the culture medium, and incubating the cells for 8 minutes at 37° C.
After removal of the medium, cells were washed three times on plates with cold phosphate-buffered saline (PBS) containing protease inhibitors (1 mM phenylmethyl-sulfonyl fluoride, 1 μg/ml aprotinin and 1 μg/ml pepstatin A), scraped, and washed again twice in cold PBS. […]
The recruitment of pRb2/p130-multimolecular complexes to ER-α promoter was analyzed in MCF-7 and MDA-MB-231 cells by XChIP. […]

## Nc1ncn([C@H]2C[C@H](O)[C@@H](CO)O2)c(=O)n1 [5-Aza-2dC, 5-Aza-2′-deoxycytidine]
[1]
  composition of pRb2/p130-multimolecular complex recruited onto ER-α promoter: did not influence the composition
ER-α in MDA-MB-231 cells; MDA-MB-231 cells treated with 5-Aza-2dC
  time of maximal ER-α RNA expression: 72 h
ER-α in MDA-MB-231 cells; MDA-MB-231 cells, 2.5 μM, 24-96 hours, RT-PCR, especially evident at 48-96 h
  expression of ER-α RNA: significantly enhanced
ER-α in MDA-MB-231 cells; MDA-MB-231 cells, 2.5 μM, 24-96 hours, Western blot, especially evident at 48-96 h
  expression of ER-α protein: significantly enhanced
[2]
  composition of pRb2/p130-multimolecular complex recruited to ER-α promoter: did not contain DNMT1
